Measured values published in the NIST ThermoML archive (doi:10.1016/j.fluid.2005.06.028).
± gives the expanded uncertainty stated by the source.

Assay: Solid-liquid equilibrium temperature

Solid-liquid equilibrium temperature (100 kPa, Crystal) [K]	Solid-liquid equilibrium temperature (20000 kPa, Crystal) [K]	Solid-liquid equilibrium temperature (40000 kPa, Crystal) [K]	Solid-liquid equilibrium temperature (60000 kPa, Crystal) [K]	Solid-liquid equilibrium temperature (80000 kPa, Crystal) [K]	Solid-liquid equilibrium temperature (100000 kPa, Crystal) [K]	Solid-liquid equilibrium temperature (100 kPa, Crystal 1) [K]	Solid-liquid equilibrium temperature (20000 kPa, Crystal 1) [K]	Solid-liquid equilibrium temperature (40000 kPa, Crystal 1) [K]	Solid-liquid equilibrium temperature (60000 kPa, Crystal 1) [K]	Solid-liquid equilibrium temperature (80000 kPa, Crystal 1) [K]	Solid-liquid equilibrium temperature (100000 kPa, Crystal 1) [K]	SMILES
279.2 ± 0.9	284.2 ± 0.9	289.1 ± 0.9	293.8 ± 0.9	297.9 ± 0.9	301.7 ± 0.9							CCCCCCCCCCCCCC [tetradecane]
283.2 ± 0.9	287.8 ± 0.9	291.9 ± 0.9	296.2 ± 0.9	300.1 ± 0.9	303.9 ± 0.9							CCCCCCCCCCCCCCC [pentadecane]
						291.5 ± 0.9	296 ± 0.9	300.4 ± 0.9	304.8 ± 0.9	309.7 ± 0.9	313.5 ± 0.9	CCCCCCCCCCCCCCCC [hexadecane]
